Assay results published in ChEMBL document CHEMBL1156495 (J Biol Chem, 2007).
The source made the active and inactive calls. No cut-off for these calls is given here. Residues, ends and D or L forms follow the SMILES beside them.

Key:
Homo sapiens [1] = organism: Homo sapiens; experiment: Inhibition of amidolytic activity of human alpha-thrombin after 60 mins by RP-HPLC
Homo sapiens [2] = organism: Homo sapiens; experiment: Inhibition of amidolytic activity of human alpha-thrombin upto 24 hrs by RP-HPLC
Plasma = experiment: Anticoagulant activity in human citreated plasma assessed as prolongation of fibrinogen clotting time; type: functional, cell-free
[3] = biological target: Coagulation factor X (Homo sapiens) (UniProt P00742); experiment: Inhibition of human factor 10a at 1 uM
[4] = biological target: Coagulation factor XI (Homo sapiens) (UniProt P03951); experiment: Inhibition of human factor 11a at 1 uM
[5] = biological target: Tissue-type plasminogen activator (Homo sapiens) (UniProt P00750); experiment: Inhibition of human tissue plasminogen activator at 1 uM
[6] = biological target: T1, Coagulation factor XII (Homo sapiens) (UniProt P00748); experiment: Inhibition of human factor 12a at 1 uM
T1 sequence (whole entry): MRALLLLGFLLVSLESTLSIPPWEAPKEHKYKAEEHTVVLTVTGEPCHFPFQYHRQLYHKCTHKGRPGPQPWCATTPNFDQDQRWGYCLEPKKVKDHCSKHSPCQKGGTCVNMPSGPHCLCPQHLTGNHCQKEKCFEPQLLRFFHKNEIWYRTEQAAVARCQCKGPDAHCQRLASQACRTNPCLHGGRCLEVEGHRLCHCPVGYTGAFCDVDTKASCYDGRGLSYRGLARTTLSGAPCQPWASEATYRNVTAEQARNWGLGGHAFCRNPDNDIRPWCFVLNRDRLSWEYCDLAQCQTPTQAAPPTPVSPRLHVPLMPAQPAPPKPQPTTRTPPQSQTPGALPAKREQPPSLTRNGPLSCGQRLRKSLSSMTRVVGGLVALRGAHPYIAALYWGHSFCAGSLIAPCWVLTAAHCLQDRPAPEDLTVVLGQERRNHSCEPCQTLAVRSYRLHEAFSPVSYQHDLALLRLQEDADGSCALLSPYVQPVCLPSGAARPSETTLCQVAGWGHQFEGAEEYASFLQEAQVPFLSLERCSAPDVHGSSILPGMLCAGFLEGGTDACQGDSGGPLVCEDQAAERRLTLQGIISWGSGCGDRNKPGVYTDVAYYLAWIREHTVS

[7] = biological target: Coagulation factor IX (Homo sapiens) (UniProt P00740); experiment: Inhibition of human factor 9a at 1 uM
[8] = biological target: Plasminogen (Homo sapiens) (UniProt P00747); experiment: Inhibition of human plasmin at 1 uM
[9] = biological target: Vitamin K-dependent protein C (Homo sapiens) (UniProt P04070); experiment: Inhibition of human Activated protein C at 1 uM
[10] = biological target: Urokinase-type plasminogen activator (Homo sapiens) (UniProt P00749); experiment: Inhibition of human urokinase at 1 uM
Trypsin (Homo sapiens) [11] = biological target: T2, Trypsin (Homo sapiens) (UniProt P07477+P07478+P35030); experiment: Inhibition of human trypsin at 1 uM; type: protein assay
[12] = biological target: T3, Coagulation factor VII (Homo sapiens) (UniProt P08709); experiment: Inhibition of human factor 7a at 1 uM
T3 sequence (whole entry): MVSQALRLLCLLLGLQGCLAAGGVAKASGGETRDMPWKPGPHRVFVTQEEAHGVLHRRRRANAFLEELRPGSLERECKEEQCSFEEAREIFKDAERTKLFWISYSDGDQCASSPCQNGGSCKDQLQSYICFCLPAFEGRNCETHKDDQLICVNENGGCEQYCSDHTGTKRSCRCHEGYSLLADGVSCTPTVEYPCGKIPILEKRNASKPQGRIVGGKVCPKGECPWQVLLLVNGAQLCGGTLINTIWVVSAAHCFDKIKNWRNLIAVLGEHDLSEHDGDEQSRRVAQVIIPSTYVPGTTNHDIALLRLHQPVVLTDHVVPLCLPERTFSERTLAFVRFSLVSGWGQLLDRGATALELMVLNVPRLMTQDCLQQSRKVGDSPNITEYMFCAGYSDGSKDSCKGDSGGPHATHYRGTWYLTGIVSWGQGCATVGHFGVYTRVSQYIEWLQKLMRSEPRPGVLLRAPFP

[13] = biological target: Plasma kallikrein (Homo sapiens) (UniProt P03952); experiment: Inhibition of human kallikrein at 1 uM
Homo sapiens [14] = organism: Homo sapiens; experiment: Inhibition of human alpha-thrombin at 1 uM
Trypsin (Homo sapiens) [15] = biological target: T2, Trypsin (Homo sapiens); experiment: Inhibition of human trypsin at 100 uM; type: protein assay
[16] = biological target: Coagulation factor XI (Homo sapiens) (UniProt P03951); experiment: Inhibition of human factor 11a at 100 uM
Homo sapiens [17] = organism: Homo sapiens; experiment: Inhibition of human chymotrypsin at 1 uM
[18] = biological target: Plasminogen (Homo sapiens) (UniProt P00747); experiment: Inhibition of human plasmin at 100 uM

Coagulation factor XI (Homo sapiens), sequence (P03951 19-387 limits assumed): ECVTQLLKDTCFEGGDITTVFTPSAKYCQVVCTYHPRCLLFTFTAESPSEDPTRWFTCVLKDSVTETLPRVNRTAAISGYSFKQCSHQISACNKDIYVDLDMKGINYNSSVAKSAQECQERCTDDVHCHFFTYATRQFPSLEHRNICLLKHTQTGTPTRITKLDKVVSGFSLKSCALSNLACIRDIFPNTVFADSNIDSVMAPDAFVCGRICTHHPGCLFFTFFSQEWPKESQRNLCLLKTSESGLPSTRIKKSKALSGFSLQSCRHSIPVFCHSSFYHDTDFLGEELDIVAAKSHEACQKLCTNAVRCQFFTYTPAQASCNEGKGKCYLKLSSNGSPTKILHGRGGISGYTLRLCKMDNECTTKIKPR
Coagulation factor XI (Homo sapiens), sequence (P03951 388-625 limits assumed): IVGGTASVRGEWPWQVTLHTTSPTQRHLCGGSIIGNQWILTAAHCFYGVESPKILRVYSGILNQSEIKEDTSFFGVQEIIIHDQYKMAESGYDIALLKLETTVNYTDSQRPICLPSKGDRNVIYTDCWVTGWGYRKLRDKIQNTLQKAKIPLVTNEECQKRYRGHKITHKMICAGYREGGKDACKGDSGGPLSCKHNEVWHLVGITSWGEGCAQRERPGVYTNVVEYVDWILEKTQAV
Plasminogen (Homo sapiens), sequence (P00747 97-580 limits assumed): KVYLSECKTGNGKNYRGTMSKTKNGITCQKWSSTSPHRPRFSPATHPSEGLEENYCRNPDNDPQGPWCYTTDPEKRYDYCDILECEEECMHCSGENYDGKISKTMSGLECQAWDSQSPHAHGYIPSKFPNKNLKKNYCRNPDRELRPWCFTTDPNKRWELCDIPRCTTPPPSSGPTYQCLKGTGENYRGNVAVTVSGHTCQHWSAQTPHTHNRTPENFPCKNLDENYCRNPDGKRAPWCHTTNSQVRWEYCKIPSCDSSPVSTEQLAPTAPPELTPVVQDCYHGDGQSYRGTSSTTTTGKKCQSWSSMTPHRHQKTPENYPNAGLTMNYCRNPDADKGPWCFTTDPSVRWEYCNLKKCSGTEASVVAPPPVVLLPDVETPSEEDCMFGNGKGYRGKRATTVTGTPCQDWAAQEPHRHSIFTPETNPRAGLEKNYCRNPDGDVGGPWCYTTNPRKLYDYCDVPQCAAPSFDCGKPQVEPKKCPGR
Plasminogen (Homo sapiens), sequence (P00747 581-810 limits assumed): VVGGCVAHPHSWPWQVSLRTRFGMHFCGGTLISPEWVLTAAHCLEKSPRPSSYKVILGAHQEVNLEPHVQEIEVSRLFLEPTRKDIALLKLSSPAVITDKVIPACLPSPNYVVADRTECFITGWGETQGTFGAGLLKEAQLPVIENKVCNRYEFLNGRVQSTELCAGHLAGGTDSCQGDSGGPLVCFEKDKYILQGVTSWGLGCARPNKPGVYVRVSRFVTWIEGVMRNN
Coagulation factor X (Homo sapiens), sequence (P00742 41-179 limits assumed): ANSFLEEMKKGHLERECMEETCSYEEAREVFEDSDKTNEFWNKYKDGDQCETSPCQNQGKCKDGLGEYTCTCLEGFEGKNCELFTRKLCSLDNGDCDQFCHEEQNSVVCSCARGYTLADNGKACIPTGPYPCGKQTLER
Coagulation factor X (Homo sapiens), sequence (P00742 235-488 limits assumed): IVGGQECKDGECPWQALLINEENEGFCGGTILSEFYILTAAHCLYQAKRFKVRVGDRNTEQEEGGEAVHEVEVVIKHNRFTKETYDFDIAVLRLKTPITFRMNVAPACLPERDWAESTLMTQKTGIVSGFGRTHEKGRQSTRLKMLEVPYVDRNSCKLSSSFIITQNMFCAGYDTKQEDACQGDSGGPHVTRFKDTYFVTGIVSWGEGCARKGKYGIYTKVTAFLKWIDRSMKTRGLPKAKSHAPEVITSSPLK
Vitamin K-dependent protein C (Homo sapiens), sequence (P04070 43-197 limits assumed): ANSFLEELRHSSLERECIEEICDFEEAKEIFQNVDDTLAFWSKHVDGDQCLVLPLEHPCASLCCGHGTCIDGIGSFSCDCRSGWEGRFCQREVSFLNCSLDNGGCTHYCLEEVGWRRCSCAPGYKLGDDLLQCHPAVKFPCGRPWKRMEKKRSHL
Vitamin K-dependent protein C (Homo sapiens), sequence (P04070 212-461 limits assumed): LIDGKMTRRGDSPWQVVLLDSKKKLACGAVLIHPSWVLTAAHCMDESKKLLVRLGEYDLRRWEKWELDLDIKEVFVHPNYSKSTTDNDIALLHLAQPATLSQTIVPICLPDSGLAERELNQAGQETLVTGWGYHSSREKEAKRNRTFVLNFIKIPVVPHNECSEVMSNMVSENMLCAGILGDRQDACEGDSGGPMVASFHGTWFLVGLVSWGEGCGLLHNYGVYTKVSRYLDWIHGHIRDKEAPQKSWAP
Coagulation factor IX (Homo sapiens), sequence (P00740 47-191 limits assumed): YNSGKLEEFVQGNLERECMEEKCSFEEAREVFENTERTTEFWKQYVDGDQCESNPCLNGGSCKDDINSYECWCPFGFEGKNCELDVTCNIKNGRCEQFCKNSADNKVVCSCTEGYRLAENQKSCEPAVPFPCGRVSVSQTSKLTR
Coagulation factor IX (Homo sapiens), sequence (P00740 227-461 limits assumed): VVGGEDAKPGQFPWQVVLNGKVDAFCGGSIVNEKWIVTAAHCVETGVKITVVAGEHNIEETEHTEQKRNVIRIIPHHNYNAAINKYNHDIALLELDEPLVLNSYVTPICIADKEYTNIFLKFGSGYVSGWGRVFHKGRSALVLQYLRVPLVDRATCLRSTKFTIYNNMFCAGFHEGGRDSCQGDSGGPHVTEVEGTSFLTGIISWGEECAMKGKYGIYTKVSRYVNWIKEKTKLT
Tissue-type plasminogen activator (Homo sapiens), sequence (P00750 36-562 limits assumed): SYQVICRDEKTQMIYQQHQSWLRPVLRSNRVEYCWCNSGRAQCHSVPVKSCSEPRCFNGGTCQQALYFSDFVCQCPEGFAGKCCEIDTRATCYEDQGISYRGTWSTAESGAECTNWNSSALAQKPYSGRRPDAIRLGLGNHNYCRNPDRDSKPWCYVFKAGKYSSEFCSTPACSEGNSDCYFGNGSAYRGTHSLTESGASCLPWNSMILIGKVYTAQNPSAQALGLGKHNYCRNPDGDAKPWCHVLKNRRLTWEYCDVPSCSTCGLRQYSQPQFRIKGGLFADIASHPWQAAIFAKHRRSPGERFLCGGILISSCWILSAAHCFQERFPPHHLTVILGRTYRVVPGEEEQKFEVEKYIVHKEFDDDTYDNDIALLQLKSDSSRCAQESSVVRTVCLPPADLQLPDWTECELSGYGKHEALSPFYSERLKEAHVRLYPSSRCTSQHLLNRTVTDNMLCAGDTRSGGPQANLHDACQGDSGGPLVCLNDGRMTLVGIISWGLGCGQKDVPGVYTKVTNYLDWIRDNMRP
Plasma kallikrein (Homo sapiens), sequence (P03952 20-390 limits assumed): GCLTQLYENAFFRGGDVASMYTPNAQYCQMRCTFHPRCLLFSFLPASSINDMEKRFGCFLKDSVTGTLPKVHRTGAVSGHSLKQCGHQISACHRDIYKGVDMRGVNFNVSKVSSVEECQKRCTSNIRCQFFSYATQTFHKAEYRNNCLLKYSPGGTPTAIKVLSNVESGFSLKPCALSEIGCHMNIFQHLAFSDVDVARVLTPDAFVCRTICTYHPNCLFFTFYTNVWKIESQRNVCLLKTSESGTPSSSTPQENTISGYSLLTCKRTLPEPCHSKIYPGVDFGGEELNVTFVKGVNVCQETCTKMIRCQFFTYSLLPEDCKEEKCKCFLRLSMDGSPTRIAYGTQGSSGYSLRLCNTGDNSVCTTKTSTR
Plasma kallikrein (Homo sapiens), sequence (P03952 391-638 limits assumed): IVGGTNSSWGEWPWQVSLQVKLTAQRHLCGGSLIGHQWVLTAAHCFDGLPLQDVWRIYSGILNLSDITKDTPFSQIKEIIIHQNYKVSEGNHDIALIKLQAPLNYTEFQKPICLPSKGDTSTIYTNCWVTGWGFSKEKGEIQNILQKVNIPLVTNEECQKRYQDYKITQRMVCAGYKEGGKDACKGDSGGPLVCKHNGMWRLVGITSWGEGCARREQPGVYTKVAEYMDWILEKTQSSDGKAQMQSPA

SMILES	Activity (Homo sapiens [1])	Activity (Homo sapiens [2])	Activity (Plasma)	inhibition [3] [%]	inhibition [4] [%]	inhibition [5] [%]	inhibition [6] [%]	inhibition [7] [%]	inhibition [8] [%]	inhibition [9] [%]	inhibition [10] [%]	inhibition (Trypsin (Homo sapiens) [11]) [%]	inhibition [12] [%]	inhibition [13] [%]	Activity (Homo sapiens [14])	inhibition (Trypsin (Homo sapiens) [15]) [%]	inhibition [16] [%]	inhibition (Homo sapiens [17]) [%]	inhibition [18] [%]
CC[C@H](C)[C@H](NC(=O)[C@H](C)NC(=O)[C@H](CCC(=O)O)NC(=O)[C@H](Cc1ccccc1)NC(=O)[C@H](CC(=O)O)NC(=O)[C@H](Cc1ccccc1)NC(=O)[C@@H]1CCCN1C(=O)[C@@H]1CCCN1C(=O)[C@H](C)NC(=O)[C@@H](NC(=O)[C@H](CCCCN)NC(=O)[C@H](Cc1cnc[nH]1)NC(=O)[C@H](CCSC)NC(=O)[C@H](CCCCN)NC(=O)[C@@H]1CCCN1C(=O)[C@@H](N)CCC(=O)O)[C@@H](C)O)C(=O)N1CCC[C@H]1C(=O)N[C@@H](CCC(=O)O)C(=O)N[C@@H](CCC(=O)O)C(=O)N[C@@H](Cc1ccc(O)cc1)C(=O)N[C@@H](CC(C)C)C(=O)N[C@@H](CC(=O)O)C(=O)N[C@@H](CC(=O)O)C(=O)N[C@@H](CCC(=O)O)C(=O)N[C@@H](CO)C(=O)O	Active	inactive	Dose-dependent effect	–	–	–	–	–	–	–	–	–	–	–	–	–	–	–	–
CC[C@H](C)[C@H](NC(=O)[C@H](C)NC(=O)[C@H](CCC(=O)O)NC(=O)[C@H](Cc1ccccc1)NC(=O)[C@H](CC(=O)O)NC(=O)[C@H](Cc1ccccc1)NC(=O)[C@@H]1CCCN1C(=O)[C@@H]1CCCN1C(=O)[C@H](C)NC(=O)[C@@H](NC(=O)[C@H](CCCCN)NC(=O)[C@H](Cc1cnc[nH]1)NC(=O)[C@H](CCSC)NC(=O)[C@H](CCCCN)NC(=O)[C@@H]1CCCN1C(=O)[C@H](CCC(=O)O)NC(=O)[C@H](C)NC(=O)[C@@H](NC(=O)[C@H](CC(=O)O)NC(=O)CNC(=O)[C@H](CCC(N)=O)NC(=O)[C@H](CC(=O)O)NC(=O)[C@@H](N)CO)C(C)C)[C@@H](C)O)C(=O)N1CCC[C@H]1C(=O)N[C@@H](CCC(=O)O)C(=O)N[C@@H](CCC(=O)O)C(=O)N[C@@H](Cc1ccc(O)cc1)C(=O)N[C@@H](CC(C)C)C(=O)N[C@@H](CC(=O)O)C(=O)N[C@@H](CC(=O)O)C(=O)N[C@@H](CCC(=O)O)C(=O)N[C@@H](CO)C(=O)O	Active	inactive	Dose-dependent effect	< 5	< 5	< 5	< 5	< 5	< 5	< 5	< 5	< 5	< 5	< 5	Active	20	20	< 5	20
CC[C@H](C)[C@H](NC(=O)[C@H](C)NC(=O)[C@H](CCC(=O)O)NC(=O)[C@H](Cc1ccccc1)NC(=O)[C@H](CC(=O)O)NC(=O)[C@H](Cc1ccccc1)NC(=O)[C@@H]1CCCN1C(=O)[C@@H]1CCCN1C(=O)[C@H](C)N)C(=O)N1CCC[C@H]1C(=O)N[C@@H](CCC(=O)O)C(=O)N[C@@H](CCC(=O)O)C(=O)N[C@@H](Cc1ccc(O)cc1)C(=O)N[C@@H](CC(C)C)C(=O)N[C@@H](CC(=O)O)C(=O)N[C@@H](CC(=O)O)C(=O)N[C@@H](CCC(=O)O)C(=O)N[C@@H](CO)C(=O)O (H-APPFDFEAIPEEYLDDES-OH)	–	–	Dose-dependent effect	–	–	–	–	–	–	–	–	–	–	–	–	–	–	–	–
